Entries after “also recorded” stand apart in the source; their conditions may differ.

The subject of data set [1] is lesion of cholinergic cells of nucleus basalis magnocellularis in rats (model of irreversible Alzheimer-type dementia). As to the kind of experiment: Barnes maze (spatial memory) in rats with 192 IgG-saporin lesion of the nucleus basalis magnocellularis, 1 round of training sessions. It is filed as in vivo, Sprague Dawley rats. The note with it: 5 administrations. An excerpt: The animal model used is the lesion of cholinergic cells of nucleus basalis magnocellularis in rats to cause memory loss that is sustained over time. It is a recognized model of irreversible-type dementia, specifically of irreversible Alzheimer-type dementia.
(§1) More specifically, a bilateral lesion was generated in the nucleus basalis magnocellularis in the brain of male Sprague Dawley rats (male 150-200 g) by means of stereotaxic coordinates (bregma −1.5 mm anteroposterior, ±3 mm laterodorsal and −8 mm ventral from the surface of the cranium) by injecting toxin 192 IgG-saporin (Merck-Millipore. Ref:MAB390) (SAP, n=30) (135 ng/μl/hemisphere; 0.25 μl/min) dissolved in artificial cerebrospinal fluid (CSF, n=28) (148 mM NaCl, 2.7 mM KCl, […], 1.2 mM CaCl2.2H2O; pH 7.4 adjusted with 1 mM K2HPO4) and the same method was carried out for the lesion control group but in this case only CSF (1 μl/hemisphere) was injected. Finally, as control of the latter, another group of animals was used which only received the injection of the needle and no compound was administered (SHAM, n=7). To stabilize the lesion process, the animals were not handled for one week. […] The compound is dissolved in DMSO:Cremophor:saline according to ratio [1:1:18].
The test used to evaluate the cognitive deficit of these models was the Barnes maze, which measures spatial memory. It is a circular maze with 20 holes on the periphery and only one of them has an escape box. When the animal finds this box, it is returned to its cage. This method is performed four times a day for four days (16 training sessions). On the fifth day, the hole leading to the escape box is covered and the animal explores the maze for three minutes for the purpose of finding this hole (test). The time in the target quadrant will be evaluated in the test. This parameter indicates if the animal accurately remembers where the escape hole is located because it will spend more time in the quadrant containing said hole (target quadrant). This parameter was analyzed by means of SMART 3.0 video-tracking software. Compared to other types of behavioral tests that evaluate memory in rodents, this test has the advantage that there is no aversive stimulus with which effects relating to fear and anxiety may interfere, which thereby prevents confusing anxiolytic effects with cognitive enhancing effects.

Data set [2] shares this test system. As to the kind of experiment: Barnes maze in 192 IgG-saporin lesioned rats, 2 rounds of training sessions (second round with treatment). It is filed as in vivo, Sprague Dawley rats. The settings on record: SAP* rats with previously shown deficit (SAP*+WIN); new escape hole, 0.5 mg/kg i.p. on 4 training days and test day from day 18. As to the method: as §1
The test used to evaluate the cognitive deficit of these models was the Barnes maze, which measures spatial memory. It is a circular maze with 20 holes on the periphery and only one of them has an escape box. When the animal finds this box, it is returned to its cage. […] The time in the target quadrant will be evaluated in the test. […] This parameter was analyzed by means of SMART 3.0 video-tracking software. […]

`Cc1c(C(=O)NN2CCCCC2)nn(-c2ccc(Cl)cc2Cl)c1-c1ccc(Cl)cc1` [SR141716A]: the “effect of CB1 antagonist co-administration on the WIN55,212-2 effect, time in the target quadrant, Barnes maze test” value in data set [1] (SAP-lesioned rats (SAP+W+SR), SR141716A 0.5 mg/kg together with WIN55,212-2 0.5 mg/kg i.p.) is listed as “reversing the effect produced by treatment with WIN55,212-2 alone”.

For `Cc1c(C(=O)c2cccc3ccccc23)c2cccc3c2n1[C@H](CN1CCOCC1)CO3` [WIN55,212-2], the “effect on memory of a control rat (time in the target quadrant), Barnes maze test” value in data set [1] (CSF control rats (CSF+W3), 3 mg/kg i.p.) is “detrimental for memory”. In data set [1] (CSF control rats (CSF+WIN), 0.5 mg/kg i.p. once daily), the “time in the target quadrant, Barnes maze test, non-lesioned control group” value is recorded as “no effect”. In addition, the “time in the target quadrant, Barnes maze test, high dose” value in data set [1] (SAP-lesioned rats (SAP+W3), 3 mg/kg i.p.) is “behave like a control rat”. The “time in the target quadrant (memory deficit), Barnes maze test” value in data set [1] (SAP-lesioned rats (SAP+WIN), 0.5 mg/kg i.p. once daily, one hour before training/test, 0.5 mg/kg) is listed as “had no memory deficits; also recorded: spends the most amount of time in the target quadrant”. Further, in data set [2], the “ability to remember the escape hole (time in the target quadrant), Barnes maze test” value was “capable of remembering it”.

These data come from patent publication US20200016163A1, “TREATMENT OF DEMENTIA WITH CANNABINOID AGONISTS” (priority 2017, published 2020).
